Data: patent US20260053861A1, “CELL COMPOSITIONS AND METHODS OF USING THE SAME” (THE REGENTS OF THE UNIVERSITY OF CALIFORNIA, priority 2022, published 2026)
Structures can show the parent of a compound that is named as a salt.

Each compound was assayed on hPSC-SCs. Settings: not given.
CC(COc1ccccc1)N(CCCl)Cc1ccccc1 (centres unmarked) [Phenoxybenzamine hydrochloride] showed a z.score.t of 0.03421. CC(N)C(O)c1ccccc1 (centres unmarked) [Phenylpropanolamine hydrochloride] gave a z.score.t of −0.8304. C=C(C)[C@@H]1[C@H]2OC(=O)[C@@H]1[C@]1(O)C[C@H]3O[C@]34C(=O)O[C@H]2[C@]14C [Picrotoxinin] showed a z.score.t of 1.281. CCN1CCCC(OC(=O)C(c2ccccc2)c2ccccc2)C1 (centres unmarked) [Piperidolate hydrochloride] was tested, and the z.score.t was −1.025. COc1cc(/C=C/C(=O)N2CCC=CC2=O)cc(OC)c1OC [Piperlongumine] showed a z.score.t of −2.024. For COc1cc([C@@H]2c3cc4c(cc3[C@H](O)[C@H]3COC(=O)[C@H]23)OCO4)cc(OC)c1OC [Podophyllotoxin], the z.score.t was −2.152. C[n+]1ccccc1/C=N/O [Pralidoxime chloride] gave a z.score.t of −0.411. Compound CC(C)c1cccc(C(C)C)c1O [Propofol] has a z.score.t of −0.411. C[C@@H]1O[C@@H](O[C@@H]2C=C3CC[C@@H]4[C@H](CC[C@]5(C)[C@@H](c6ccc(=O)oc6)CC[C@]45O)[C@@]3(C)CC2)[C@H](O)[C@H](O)[C@H]1O [Proscillaridin A] gave a z.score.t of −1.543. With CC[C@@H](C)C(=O)O[C@H]1[C@H](O)[C@H]2[C@@H](CN3C[C@@H](C)CC[C@H]3[C@@]2(C)O)[C@@H]2C[C@]34O[C@]5(O)[C@@H](OC(=O)[C@@](C)(O)CC)CC[C@@]3(C)[C@@H]5[C@@H](OC(C)=O)[C@@H](OC(C)=O)[C@H]4[C@@]21O [Protoveratrine A] the z.score.t was −0.3319. With CN1[C@@H]2CCC[C@H]1CC(=O)C2.Cl [Pseudopelletierine hydrochloride] the z.score.t was −0.6864. For Cc1ncc(CO)c(CO)c1O.Cl [Pyridoxine hydrochloride], the z.score.t was −0.5337. CCC1(CC)C(=O)C=CNC1=O [Pyrithyldione] gave a z.score.t of 0.7158. With O.O.O=c1c(O)c(-c2ccc(O)c(O)c2)oc2cc(O)cc(O)c12 [Quercetine dihydrate] the z.score.t was 1.371.

Same assay, conditions: HTS viability of hPSC-SCs in the presence of 30 mM glucose; Prestwick library; Table S4
O=C1c2ccccc2C(=O)C1c1ccccc1 [Phenindione] was tested, and the z.score.t was 0.7312. Work on CN(C)CCC(c1ccccc1)c1ccccn1 (centres unmarked) [Pheniramine maleate] yielded a z.score.t of −0.09426. With CN1C(=O)CC(c2ccccc2)C1=O (centres unmarked) [Phensuximide] the z.score.t was 1.669. For Cc1ccc(N(CC2=NCCN2)c2cccc(O)c2)cc1 [Phentolamine hydrochloride], the z.score.t was −0.1241. O=C(O)c1ccccc1C(=O)Nc1ccc(S(=O)(=O)Nc2nccs2)cc1 [Phthalylsulfathiazole] showed a z.score.t of −1.317. COc1ccc(C(=O)NCc2cccnc2)cc1C(=O)NCc1cccnc1 [Picotamide monohydrate] was tested, and the z.score.t was −0.04944. CC[C@@H]1C(=O)OC[C@@H]1Cc1cncn1C [Pilocarpine nitrate] showed a z.score.t of 1.139. Work on CN1CCC(=C2c3ccccc3Sc3ccccc32)CC1 [Pimethixene maleate] yielded a z.score.t of −1.233. O=c1[nH]c2ccccc2n1C1CCN(CCCC(c2ccc(F)cc2)c2ccc(F)cc2)CC1 [Pimozide] was tested, and the z.score.t was −1.173. With CC(N/C(=N\C#N)Nc1ccncc1)C(C)(C)C (centres unmarked) [Pinacidil] the z.score.t was −0.03449. CC(C)NCC(O)COc1cccc2[nH]ccc12 (centres unmarked) [Pindolol] showed a z.score.t of 0.2038. CCn1cc(C(=O)O)c(=O)c2cnc(N3CCNCC3)nc21 [Pipemidic acid] gave a z.score.t of 0.4318. Compound CC[N+]1(C)CCCC(OC(=O)C(O)(c2ccccc2)c2ccccc2)C1 (centres unmarked) [Pipenzolate bromide] has a z.score.t of 0.4318. Work on CC(=O)c1ccc2c(c1)N(CCCN1CCC(CCO)CC1)c1ccccc1S2 [Piperacetazine] yielded a z.score.t of −1.148. In the case of CCN1CCN(C(=O)N[C@@H](C(=O)N[C@@H]2C(=O)N3[C@@H]2SC(C)(C)[C@@H]3C(=O)O)c2ccccc2)C(=O)C1=O [Piperacillin sodium salt], the z.score.t is reported as 0.8465. For O=C(/C=C/C=C/c1ccc2c(c1)OCO2)N1CCCCC1 [Piperine], the z.score.t was −0.1003. For NC(=O)CN1CCCC1=O [Piracetam], the z.score.t was 1.595. In the case of Cc1nc2ccccn2c(=O)c1CCN1CCC(C(=O)c2ccc(F)cc2)CC1 [Pirenperone], the z.score.t is reported as −0.07901. For CN1CCN(CC(=O)N2c3ccccc3C(=O)Nc3cccnc32)CC1 [Pirenzepine dihydrochloride], the z.score.t was −0.07933. For NS(=O)(=O)c1cc(C(=O)O)cc(N2CCCC2)c1Oc1ccccc1 [Piretanide], the z.score.t was −0.9376. With c1cnc(N2CCN(Cc3ccc4c(c3)OCO4)CC2)nc1 [Piribedil hydrochloride] the z.score.t was −1.291. CCn1cc(C(=O)O)c(=O)c2cnc(N3CCCC3)nc21 [Piromidic acid] was tested, and the z.score.t was 0.453. CN1C(C(=O)Nc2ccccn2)=C(O)c2ccccc2S1(=O)=O [Piroxicam] was tested, and the z.score.t was −0.4161. CC(C)(C)C(=O)OCOC(=O)[C@@H]1N2C(=O)[C@@H](NC(=O)[C@H](N)c3ccccc3)[C@H]2SC1(C)C [Pivampicillin] gave a z.score.t of −0.2187. Work on CC(C)(C)C(=O)OCOC(=O)[C@@H]1N2C(=O)[C@@H](/N=C/N3CCCCCC3)[C@H]2SC1(C)C [Pivmecillinam hydrochloride] yielded a z.score.t of 0.0827. Work on CC(=O)Nc1ccc(OCC(O)CNC(C)C)cc1 (centres unmarked) [Practolol] yielded a z.score.t of −0.3112. CCCCOc1ccc(OCCCN2CCOCC2)cc1 [Pramoxine hydrochloride] was tested, and the z.score.t was −1.058. O=C(C1CCCCC1)N1CC(=O)N2CCc3ccccc3C2C1 (centres unmarked) [Praziquantel] was tested, and the z.score.t was −0.5553. With COc1cc2nc(N3CCN(C(=O)c4ccco4)CC3)nc(N)c2cc1OC [Prazosin hydrochloride] the z.score.t was −0.496. CCOC(=O)O[C@]1(C(=O)COC(=O)CC)CC[C@H]2[C@@H]3CCC4=CC(=O)C=C[C@]4(C)[C@H]3[C@@H](O)C[C@@]21C [Prednicarbate] showed a z.score.t of −0.7266. With C[C@]12C=CC(=O)C=C1CC[C@@H]1[C@@H]2[C@@H](O)C[C@@]2(C)[C@H]1CC[C@]2(O)C(=O)CO [Prednisolone] the z.score.t was 1.287. C[C@]12C=CC(=O)C=C1CC[C@@H]1[C@@H]2C(=O)C[C@@]2(C)[C@H]1CC[C@]2(O)C(=O)CO [Prednisone] showed a z.score.t of −0.6093. With CC(=O)[C@H]1CC[C@H]2[C@@H]3CC=C4C[C@@H](O)CC[C@]4(C)[C@H]3CC[C@]12C [Pregnenolone] the z.score.t was −0.6864. For CCCNC(C)C(=O)Nc1ccccc1C (centres unmarked) [Prilocaine hydrochloride], the z.score.t was 1.984. COc1cc(NC(C)CCCN)c2ncccc2c1 (centres unmarked) [Primaquine diphosphate] showed a z.score.t of −1.784. CCC1(c2ccccc2)C(=O)NCNC1=O [Primidone] gave a z.score.t of 0.2582. For CCCC(C(=O)OCCN(CC)CC)(c1ccccc1)c1ccccc1 [Proadifen hydrochloride], the z.score.t was −1.138. CCCN(CCC)S(=O)(=O)c1ccc(C(=O)O)cc1 [Probenecid] showed a z.score.t of −0.3319. CC(C)(Sc1cc(C(C)(C)C)c(O)c(C(C)(C)C)c1)Sc1cc(C(C)(C)C)c(O)c(C(C)(C)C)c1 [Probucol] gave a z.score.t of 0.1344. With CCN(CC)CCNC(=O)c1ccc(N)cc1 [Procainamide hydrochloride] the z.score.t was −0.2904. Work on CCN(CC)CCOC(=O)c1ccc(N)cc1 [Procaine hydrochloride] yielded a z.score.t of 0.5587. CNNCc1ccc(C(=O)NC(C)C)cc1 [Procarbazine hydrochloride] was tested, and the z.score.t was −0.01802. Compound CN1CCN(CCCN2c3ccccc3Sc3ccc(Cl)cc32)CC1 [Prochlorperazine dimaleate] has a z.score.t of −0.7775. In the case of OC(CCN1CCCC1)(c1ccccc1)C1CCCCC1 (centres unmarked) [Procyclidine hydrochloride], the z.score.t is reported as −0.0788. CC(=O)[C@H]1CC[C@H]2[C@@H]3CCC4=CC(=O)CC[C@]4(C)[C@H]3CC[C@]12C [Progesterone] gave a z.score.t of 0.1767. CCCN(CCC)C(=O)C(CCC(=O)O)NC(=O)c1ccccc1 (centres unmarked) [Proglumide] was tested, and the z.score.t was −0.8991. [H]/N=C(\N/C(=N/[H])Nc1ccc(Cl)cc1)NC(C)C [Proguanil hydrochloride] was tested, and the z.score.t was −0.1187. CN(C)CCCN1c2ccccc2Sc2ccccc21 [Promazine hydrochloride] showed a z.score.t of −1.845. Work on CC(CN1c2ccccc2Sc2ccccc21)N(C)C (centres unmarked) [Promethazine hydrochloride] yielded a z.score.t of 1.578. Work on CC(C)NCC(O)c1ccc2ccccc2c1 (centres unmarked) [Pronethalol hydrochloride] yielded a z.score.t of −0.4684. With CCCNCC(O)COc1ccccc1C(=O)CCc1ccccc1 (centres unmarked) [Propafenone hydrochloride] the z.score.t was 1.211. With CC(C)[N+](C)(CCOC(=O)C1c2ccccc2Oc2ccccc21)C(C)C [Propantheline bromide] the z.score.t was 0.9525. For CCCOc1ccc(C(=O)OCCN(CC)CC)cc1N [Proparacaine hydrochloride], the z.score.t was 0.7158. For CC[N+](C)(CC)CCC[n+]1c(-c2ccccc2)c2cc(N)ccc2c2ccc(N)cc21.[I-].[I-] [Propidium iodide], the z.score.t was −0.7567. Compound CCCOc1cc(N)ccc1C(=O)OCCN(CC)CC [Propoxycaine hydrochloride] has a z.score.t of −0.8229. Work on CC(C)NCC(O)COc1cccc2ccccc12 (centres unmarked) [Propranolol hydrochloride] yielded a z.score.t of −1.412. CCCc1cc(=O)[nH]c(=S)[nH]1 [Propylthiouracil] was tested, and the z.score.t was −0.2904. In the case of CNCCCC1c2ccccc2C=Cc2ccccc21 [Protriptyline hydrochloride], the z.score.t is reported as −0.3678. In the case of CC(O)Cn1cnc2c1c(=O)n(C)c(=O)n2C (centres unmarked) [Proxyphylline], the z.score.t is reported as −0.3023. COc1ccc(C[C@H](N)C(=O)N[C@H]2[C@@H](O)[C@H](n3cnc4c(N(C)C)ncnc43)O[C@@H]2CO)cc1 [Puromycin dihydrochloride] was tested, and the z.score.t was −2.056. In the case of NC(=O)c1cnccn1 [Pyrazinamide], the z.score.t is reported as 1.73. With COc1ccc(CN(CCN(C)C)c2ccccn2)cc1 [Pyrilamine maleate] the z.score.t was 0.07016. For CCc1nc(N)nc(N)c1-c1ccc(Cl)cc1 [Pyrimethamine], the z.score.t was 0.5856. For CCN(CC)CCCC(C)Nc1c2ccc(Cl)cc2nc2ccc(OC)cc12 (centres unmarked) [Quinacrine dihydrochloride dihydrate], the z.score.t was −1.898. CCOC(=O)[C@H](CCc1ccccc1)N[C@@H](C)C(=O)N1Cc2ccccc2C[C@H]1C(=O)O [Quinapril HCl] was tested, and the z.score.t was −0.1464. With CCC1NC(=O)c2cc(S(N)(=O)=O)c(Cl)cc2N1 (centres unmarked) [Quinethazone] the z.score.t was −0.9264.
